How the values were obtained:
CKα1 = target: T1, CKα1 (Homo sapiens, UniProt P35790); assay: Choline kinase assay ([methyl-14C]choline into PCho, purified enzyme); assay type: biochemical; details: for IC50: concentration required to inhibit CKα1 enzyme by 50%; for % Inhibition at 10 µM: purified CKα1, inhibitor 10 µM; for % Inhibition at 10 µM / % Inhibition at 30 µM: end-point assay; for % Inhibition at 30 µM: purified CKα1, inhibitor 30 µM
T1 construct: an N-terminally His-tagged truncated form of CKα1 (Δ75–457) was cloned into a pET-28a vector; His tag (N); made in house; host or cells: E. coli BL21 (DE3) Star
T1 sequence (P35790 75-457): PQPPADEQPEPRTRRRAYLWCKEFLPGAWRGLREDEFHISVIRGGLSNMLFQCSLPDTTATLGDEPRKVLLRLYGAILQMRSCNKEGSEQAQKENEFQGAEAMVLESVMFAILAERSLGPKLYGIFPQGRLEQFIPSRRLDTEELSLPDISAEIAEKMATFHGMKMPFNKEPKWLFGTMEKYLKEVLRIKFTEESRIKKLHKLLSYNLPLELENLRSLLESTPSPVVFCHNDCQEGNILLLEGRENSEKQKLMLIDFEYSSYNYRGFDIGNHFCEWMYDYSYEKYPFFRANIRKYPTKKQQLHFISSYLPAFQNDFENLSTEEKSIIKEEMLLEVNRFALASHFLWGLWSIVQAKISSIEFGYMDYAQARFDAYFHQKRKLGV
Method: The protein was produced and purified as previously described. Briefly, an N-terminally His-tagged truncated form of CKα1 (Δ75–457) was cloned into a pET-28a vector and expressed at 37 °C in E. coli BL21 (DE3) Star cells using 1 mM isopropyl β-D-1-thiogalactopyranoside (IPTG). After centrifugation, the cellular pellet was resuspended in 50 mM Tris-HCl pH 7.5, 500 mM NaCl, 0.2 mM phenylmethylsulphonyl fluoride (PMSF), DNase, and 0.5 mM β-mercaptoethanol, sonicated and subjected to a two-step purification procedure to isolate the target enzyme. […] Protein elution was completed using buffer A + 400 mM imidazole. A second size-exclusion chromatography step was then carried out to achieve complete purity. To this end, we used a HiPrep 26/60 Sephacryl 100 HR column (GE Healthcare, Little Chalfont, Buckinghamshire, UK) and a 20 mM Tris/HCl pH 7.5, 150 mM NaCl running buffer.
To study the effect of the compounds on CKα, an in vitro enzymatic assay was performed using the purified enzyme as previously reported in [19, 28, 29]. Briefly, the incorporation of ^14C from [methyl-^14C]choline into PCho in either the absence (control) or presence of different inhibitors at varying concentrations was used to determine the CK activity. The reaction mixture included 20 ng of purified CKα1, 10 mM ATP, 10 mM MgCl2, 100 mM Tris-HCl pH 8.5, and increasing concentrations of compounds. The mixture was preincubated at 37 °C for 5 min. Then, [methyl-^14C]choline chloride (1 mM, 4500 dpm/nmol) was added and the reaction was left to proceed for 10 min at 37 °C. The assay was stopped by immersing the reaction tubes in boiling water. PCho was separated by Thin Layer Chromatography using methanol/0.6% NaCl/28% NH4OH in water (50:50:5, v/v/v) as solvent. The radioactivity associated into PCho was determined in a Beckman 6000-TA (Madrid, Spain) liquid scintillation counter. The 50% inhibitory concentrations (IC50 values) were determined from the % enzyme activity at different concentrations of synthetic inhibitors relative to the control by using a sigmoidal dose–response curve (ED50plus v1.0 software).

HL-60 = assay: Antiproliferative activity, resazurin assay, 72 h; assay type: cell-based, human
Method: (§1) Human cervix carcinoma (HeLa), Non-small lung adenocarcinoma (A549), Colon adenocarcinoma (HT29), and human triple negative breast cancer (MDA-MB-231) were cultured in Dulbecco’s modified Eagle’s media (DMEM). B-acute lymphoblastic leukemia (RS4;11 and SEM), T-acute lymphoblastic leukemia (Jurkat), and human promyelocytic cells (HL-60), were cultured in RPMI-1640 medium. Both media were purchased from Gibco, Life Technologies (Milan, Italy) and supplemented with 10% Fetal Bovine Serum (FBS, Invitrogen, Milan, Italy,). Every six months, each cell line was checked for the presence of mycoplasma by RT-PCR.
(§2) Stock solutions (10 mM) of the different compounds were made in DMSO. Cancer cells were seeded in tissue-treated, flat bottom, 384-well plates (Corning) according to their optimal density, (A549 1000 cells/wells; MDA-MB-231, HeLa and HT-29 2000 cells/well and finally Jurkat, HL-60 SEM and RS4;11 20.000 cells/well) in 27 µL of complete medium per well.
(§3) The day after cell seeding and immediately before cell treatment, 10 mM stock solutions of the compounds were pre-diluted to a […] concentration in 250 µL of Hank’s in a 96-well plate (Corning). Subsequent 1:5 dilutions were carried out using a microlab STAR 96-CORE liquid handling system (Hamilton), a robotized liquid handling tool that was employed for all steps, from cell seeding to drug dilution and cell treatment to ensure high reproducibility while reducing time for large screening execution. This pre-dilution step was necessary to avoid DMSO-related cytotoxicity and compound precipitation in the cell culture medium. In every case, DMSO concentration never exceeded 0.1%.
(§4) Positive (Bortezomib 1 µM) and negative (0.1% DMSO) controls were included in all the screened plates to allow for monitoring the Z’ factor throughout the entire screening. Cells were treated with 3 µL of the previously made dilutions; thus, generating a 6-point 5-fold dose–response curve starting from 10 µM. Within a plate, each drug concentration was tested in duplicate in two independent experiments for each compound.
(§5) Treated cells were then placed inside the CO2 incubator for 72 h at 37 °C. Cell viability was assessed by resazurin assay, in which 3 µL of resazurin per well were added using the previously described automated platform. Plates were placed in the incubator at 37 °C for 2 h, and then the fluorescence of each plate was read using a Spark 10 M multimode microplate reader (Tecan Group Ltd., Mannedorf, Switzerland) with 535 nm excitation wavelength and 600 nm emission wavelength.

HeLa = assay: Antiproliferative activity, resazurin assay, 72 h; assay type: cell-based, human
Method: as §1, §2, §3, §4, §5

HT29 = assay: Antiproliferative activity, resazurin assay, 72 h; assay type: cell-based, human
Method: as §1, §2, §3, §4, §5

SEM cells = assay: Antiproliferative activity, resazurin assay, 72 h; assay type: cell-based, human
Method: as §1, §2, §3, §4, §5

RS 4;11 = assay: Antiproliferative activity, resazurin assay, 72 h; assay type: cell-based, human
Method: as §1, §2, §3, §4, §5

Jurkat = assay: Antiproliferative activity, resazurin assay, 72 h; assay type: cell-based, human
Method: as §1, §2, §3, §4, §5

MDA-MB-231 = assay: Antiproliferative activity, resazurin assay, 72 h; assay type: cell-based, human
Method: as §1, §2, §3, §4, §5

A549 = assay: Antiproliferative activity, resazurin assay, 72 h; assay type: cell-based, human
Method: as §1, §2, §3, §4, §5

| SMILES | IC50 (CKα1) [nM] | IC50 (CKα1; listed as Fa-34) [nM] | % Inhibition at 10 µM (CKα1) [%] | % Inhibition at 30 µM (CKα1) [%] | GI50 (HL-60) [nM] | GI50 (HeLa) [nM] | GI50 (HT29) [nM] | GI50 (SEM cells) [nM] | GI50 (RS 4;11) [nM] | GI50 (Jurkat) [nM] | GI50 (MDA-MB-231) [nM] | GI50 (A549) [nM] |
| --- | --- | --- | --- | --- | --- | --- | --- | --- | --- | --- | --- | --- |
| [Br-].[Br-].c1cc2c(s1)c(N1CCCCCC1)nc[n+]2Cc1ccc(OCCOc2ccc(C[n+]3cnc(N4CCCCCC4)c4sccc43)cc2)cc1 [Ff-34] | 700 ± 30 | 704 | 94.31 | 99.02 | 270 ± 10 | 930 ± 10 | 1630 ± 100 | 2500 ± 100 | 1800 ± 100 | 6100 ± 1100 | 910 ± 80 | 290 ± 30 |
| [Br-].[Br-].c1cc2c(N3CCCCCC3)nc[n+](Cc3ccc(CCCCc4ccc(C[n+]5cnc(N6CCCCCC6)c6ccsc65)cc4)cc3)c2s1 [Ff-35, ((1,1′-((butane-1,4-diylbis(4,1-phenylene))bis(methylene))bis(4-(azepan-1-yl)thieno[2,3-d]pyrimidin-1-ium)) bromide] | 460 ± 80 |  |  |  | 150 ± 10 | 300 ± 10 | 780 ± 30 | 760 ± 30 | 950 ± 50 | 1540 ± 20 | 97 ± 1 | 140 ± 20 |
| [Br-].[Br-].c1cc2c(s1)c(N1CCCC1)cc[n+]2Cc1ccc(-c2ccc(C[n+]3ccc(N4CCCC4)c4sccc43)cc2)cc1 [Fg-9] | ≥ 5000 |  | 75.81 | 94.95 | 9120 ± 1100 | > 10000 | > 10000 | > 10000 | > 10000 | > 10000 | 2020 ± 200 | 250 ± 20 |
| [Br-].[Br-].c1cc2c(s1)c(N1CCCCCC1)cc[n+]2Cc1ccc(-c2ccc(C[n+]3ccc(N4CCCCCC4)c4sccc43)cc2)cc1 [Fg-10] | ≥ 10000 |  | 80.76 | 96.98 | 440 ± 50 | 1590 ± 100 | 1760 ± 200 | 3510 ± 800 | 2770 ± 900 | 6330 ± 600 | 1460 ± 200 | 310 ± 10 |
| [Br-].[Br-].c1cc2c(s1)c(N1CCCC1)cc[n+]2Cc1ccc(CCc2ccc(C[n+]3ccc(N4CCCC4)c4sccc43)cc2)cc1 [Fg-11] | 2330 ± 200 |  | 93.07 | 94.25 | 470 ± 30 | 2190 ± 300 | 3650 ± 500 | > 10000 | 5720 ± 500 | 8530 ± 1100 | 680 ± 70 | 390 ± 40 |
| [Br-].[Br-].c1cc2c(N3CCCC3)nc[n+](Cc3ccc(-c4ccc(C[n+]5cnc(N6CCCC6)c6ccsc65)cc4)cc3)c2s1 [Fg-14] | 4870 ± 570 |  | 80.28 | 94.14 | 1350 ± 100 | 2530 ± 800 | 4160 ± 1000 | > 10000 | > 10000 | > 10000 | 940 ± 90 | 280 ± 20 |
| [Br-].[Br-].c1cc2c(N3CCCC3)nc[n+](Cc3ccc(CCc4ccc(C[n+]5cnc(N6CCCC6)c6ccsc65)cc4)cc3)c2s1 [Fg-15] | ≥ 5000 |  | 71.11 | 81.29 | 130 ± 10 | 1000 ± 100 | 2010 ± 30 | > 10000 | 3710 ± 40 | > 10000 | 260 ± 20 | 220 ± 30 |
| [Br-].[Br-].c1cc2c(s1)c(N1CCCC1)nc[n+]2Cc1ccc(CCc2ccc(C[n+]3cnc(N4CCCC4)c4sccc43)cc2)cc1 [Fg-16] | 1810 ± 170 |  | 80.28 | 85.87 | 210 ± 30 | 670 ± 20 | 2640 ± 60 | > 10000 | 7270 ± 800 | > 10000 | 380 ± 10 | 250 ± 20 |
| [Br-].[Br-].c1cc2c(N3CCCCC3)nc[n+](Cc3ccc(CCc4ccc(C[n+]5cnc(N6CCCCC6)c6ccsc65)cc4)cc3)c2s1 [Fg-31] | ≥ 10000 |  | 51.54 | 74.39 | 760 ± 50 | 1400 ± 20 | 4500 ± 400 | > 10000 | 7200 ± 1000 | > 10000 | 1090 ± 100 | 1170 ± 10 |
| CN(c1ccccc1)c1nc[n+](Cc2ccc(-c3ccc(C[n+]4cnc(N(C)c5ccccc5)c5sccc54)cc3)cc2)c2ccsc12 [Fp-1] | 1060 ± 220 |  |  |  | 510 ± 50 | 1660 ± 10 | 1430 ± 30 | 4550 ± 500 | 2120 ± 200 | > 10000 | 900 ± 20 | 210 ± 20 |

From PMC9032693, “Biological Evaluation of New Thienopyridinium and Thienopyrimidinium Derivatives as Human Choline Kinase Inhibitors” (Pharmaceutics, 2022)
